Test [1] has as its system Candida albicans. Nature of the test: Antimicrobial activity against Candida albicans at 30 ug/ml after 72 hr by cup-plate method. It counts as functional. Particulars: read-out: IZ.
The subject of test [2] is Staphylococcus aureus. As to the kind of experiment: Antimicrobial activity against Staphylococcus aureus at 10 ug/ml after 24 hr by cup-plate method. Particulars: read-out: IZ.
For test [3], the system named is Klebsiella. Nature of the test: Antimicrobial activity against Klebsiella at 10 ug/ml after 24 hr by cup-plate method. In kind it is functional. Particulars: read-out: IZ.
Test [4] deals with Candida albicans. Nature of the test: Antimicrobial activity against Candida albicans at 5 ug/ml after 72 hr by cup-plate method. In kind it is functional. Particulars: read-out: IZ.
In test [5] the test system is Staphylococcus aureus. Nature of the test: Antimicrobial activity against Staphylococcus aureus at 75 ug/ml after 24 hr by cup-plate method. In kind it is functional.
The test system of test [6] is Candida albicans. Nature of the test: Antimicrobial activity against Candida albicans at 50 to 70 ug/ml after 72 hr by cup-plate method. It counts as functional, organism-based.
Test [7] relates to Candida albicans. Nature of the test: Antimicrobial activity against Candida albicans at 50 ug/ml after 72 hr by cup-plate method. It counts as functional. Particulars: read-out: IZ.
In test [8] the test system is Klebsiella. Nature of the test: Antimicrobial activity against Klebsiella at 50 ug/ml after 24 hr by cup-plate method. In kind it is functional.

SMILES strings stand for the structures. The source made the active and inactive calls. No cut-off for these calls is given here.

`OC(Cn1cncn1)(Cn1cncn1)c1ccc(F)cc1F` [FLUCONAZOLE]: the zone of inhibition at 30 µg/mL in test [1] stood at 22 mm.
In the case of `O=C(O)c1cn(C2CC2)c2cc(N3CCNCC3)c(F)cc2c1=O` [CIPROFLOXACIN], the zone of inhibition at 10 µg/mL in test [2] and in test [3] was 28 mm each time.
As to `O=[N+]([O-])c1ccc(Cc2nn3cc(-c4ccc(Br)cc4)nc3s2)cc1`, in test [4], the zone of inhibition at 5 µg/mL was determined as 14 mm. Moreover, the “inhibition zone (IZ)” value in test [5] and in test [6] was “inactive” throughout.
In the case of `O=[N+]([O-])c1ccc(Cc2nn3cc(-c4ccc(F)cc4)nc3s2)cc1`, the “inhibition zone (IZ)” value in test [5] and in test [8] was “inactive” each time. The zone of inhibition at 50 µg/mL in test [7] was 22 mm.

The values above are taken from ChEMBL document CHEMBL3044560, “Microwave-assisted synthesis and antimicrobial activity of some imidazo[2,1-b][1,3,4]thiadiazole derivatives” (2012).
